Results: patent publication US9758492B2, “IDO inhibitors” (Bristol-Myers Squibb Company, priority 2013, dated 2017)

Experiments:
IDO [1] = biological target: T1, IDO (Homo sapiens, UniProt P14902); assay: Kynurenine assay in Hela cells stimulated with IFN-γ to express IDO; type: cell-based; design: endogenous in cells; host or cells: HeLa (ATCC CCL-2), stimulated with human recombinant IFN-gamma; conditions: 20 h, read-out: Hela Kyurenine (IC50)
Method: IFNg (R&D, 28-IF-100)—resuspend at 10 ug/mL in PBS with 0.1% BSA 30% TCA
Ehrlich reagent (2% w/v p-dimethylaminobenzaldehyde in glacial acetic acid)
Cell Titer 96 Aqueous Non-Radioactive Cell Proliferation Assay, MTS (Promega, Cat # G5430)
Cell Lines and Culture Conditions
Hela cancer cell lines were acquired from the American Type Culture Collection. Cells were maintained in phenol red free-RPMI1640 medium containing high glucose and L-glutamine (Invitrogen) supplemented with 10% fetal bovine serum (FBS; Invitrogen). Cell cultures were incubated at 37° C., 5% CO2, and 100% humidity.
Cell Treatment and Kynurenine Assay
Hela cells were seeded on 96-well plates (40,000 cells per well) and allowed to adhere for 5-6 hours. Cells were then treated with vehicle (DMSO) or with IDO inhibitor at a top dose of 30 μM (3-fold dilution all the way down to 1.5 nM). A final concentration of 100 ng/mL of human recombinant IFN-γ (R&D, 28-IF-100) was immediately added to the cells to stimulate IDO expression. Treated cells were then incubated for 20 hours at 37° C. At the end of the 20 h incubation, reactions were terminated by the addition of 30% TCA to each well. Plates were incubated for 30 minutes at 50° C. to hydrolyze N-formylkynurenine to kynurenine. Cells were centrifuged 10 minutes at 2400 rpm. 100 ul of supernatants were transferred to new 96 flat well plates and mixed with 100 ul Ehrlich reagent. The resulting solution was incubated 10 minutes at RT. Absorbance at 490 nm was read using Spectra Max 384 (Molecular Devices).

IDO [2] = biological target: T1, IDO; assay: LLE_IDO_ABS_DR (IDO assay)
Human IDO1 = biological target: T2, Human IDO1 (Homo sapiens, UniProt P14902); assay: IDO Kynurenine Assay with Human IDO1/HEK293 Cells; type: cell-based; conditions: read-out: HEK human IDO-1 (IC50)
T2 construct: expressed in transfected cells; host or cells: HEK293
Outline: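 HEK293 cells stably expressing human IDO1, in phenol red-free RPMI/10% FBS, exposed to compound for 20 h at 37 °C. Stopped with 0.2% TCA (50 °C, 30 min); kynurenine in supernatant detected with Ehrlich reagent, absorbance 490 nm.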

T2 sequence (P14902 whole entry): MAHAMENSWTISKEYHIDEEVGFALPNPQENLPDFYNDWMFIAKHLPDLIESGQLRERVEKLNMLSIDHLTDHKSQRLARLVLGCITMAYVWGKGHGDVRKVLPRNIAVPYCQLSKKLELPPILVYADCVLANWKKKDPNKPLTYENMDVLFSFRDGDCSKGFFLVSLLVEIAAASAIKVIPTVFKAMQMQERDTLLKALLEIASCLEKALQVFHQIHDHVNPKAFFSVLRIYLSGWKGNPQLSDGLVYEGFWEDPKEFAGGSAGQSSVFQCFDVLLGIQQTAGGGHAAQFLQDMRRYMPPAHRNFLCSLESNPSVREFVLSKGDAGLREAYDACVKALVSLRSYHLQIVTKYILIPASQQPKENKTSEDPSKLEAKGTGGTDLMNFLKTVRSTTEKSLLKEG
T1 sequence (P14902 whole entry): as above

| Structure (SMILES) | IC50 (IDO [1]) [nM] | IC50 (IDO [2]) [nM] | IC50 (Human IDO1) [nM] |
| --- | --- | --- | --- |
| COc1ccc(-c2ccc(N(C)C3CCCCC3)c(NC(=O)Nc3ccccc3Cl)c2)cc1C(=O)O [Example 42, 3′-(3-(2-chlorophenyl)ureido)-4′-(cyclohexyl(methyl)amino)-4-methoxybiphenyl-3-carboxylic acid] | 1170 | – | – |
| COc1ccc(-c2ccc(N(C)C3CCCCC3)c(NC(=O)Nc3ccc(C)cc3)c2)cc1C(=O)O [Example 43, 4′-(cyclohexyl (methyl)amino)-4-methoxy-3′-(3-p-tolylureido)biphenyl-3-carboxylic acid] | 1430 | – | – |
| O=C(Nc1ccc(F)cc1F)Nc1cc(-c2ccccc2-c2nnn[nH]2)ccc1N(CCC(F)(F)F)Cc1ccc(F)cc1C(F)(F)F [Example 340, 1-(2,4-difluorophenyl)-3-(4-((4-fluoro-2-(trifluoromethyl)benzyl) (3,3,3-trifluoropropyl)amino)-2′-(1H-tetrazol-5-yl)-[1,1′-biphenyl]-3-yl)urea] | – | 30 | 40 |
| O=C(Nc1ccc(F)cc1F)Nc1cc(-c2ccccc2-c2nnn[nH]2)ccc1N(CCC(F)(F)F)Cc1ccccn1 [Example 344, 1-(2,4-difluorophenyl)-3-(4-((pyridin-2-ylmethyl)(3,3,3-trifluoropropyl)amino)-2′-(1H-tetrazol-5-yl)-[1,1′-biphenyl]-3-yl) urea] | – | 30 | 50 |
| O=C(Nc1ccc(C2CC2)c(F)c1)Nc1cc(-c2ccccc2-c2nnn[nH]2)ccc1N(CCC(F)(F)F)Cc1ccc(F)cc1C(F)(F)F [Example 352, 1-(4-cyclopropyl-3-fluorophenyl)-3-(4-((4-fluoro-2-(trifluoro-methyl)benzyl) (3,3,3-trifluoropropyl)amino)-2′-(1H-tetrazol-5-yl)-[1,1′-biphenyl]-3-yl)urea] | – | 90 | 220 |
| C=CC(c1ccccc1)c1cc(-c2ccccc2-c2nnn[nH]2)cc(NC(=O)Nc2ccccc2F)c1NCC(C)C (centres unmarked) [Example 357, 1-(2-fluorophenyl)-3-(4-(isobutylamino)-5-(1-phenylallyl)-2′-(1H-tetrazol-5-yl)-[1,1′-biphenyl]-3-yl)urea] | – | 40 | 320 |
| C=CC(c1ccccc1)c1cc(-c2ccccc2-c2nnn[nH]2)cc(NC(=O)Nc2ccc(C)cc2)c1NCC(C)C (centres unmarked) [Example 358, 1-(4-(isobutylamino)-5-(1-phenylallyl)-2′-(1H-tetrazol-5-yl)-[1,1′-biphenyl]-3-yl)-3-(p-tolyl)urea] | – | 20 | 350 |
| Cc1ccc(NC(=O)Nc2cc(-c3ccccc3-c3nnn[nH]3)ccc2N2CCCc3ccccc32)cc1 [Example 361, 1-(4-(3,4-Dihydroquinolin-1(2H)-yl)-2′-(1H-tetrazol-5-yl)-[1,1′-biphenyl]-3-yl)-3-(p-tolyl)urea] | – | 110 | 220 |
| Cc1ccc(NC(=O)Nc2cc(-c3cc(F)ccc3C(=O)O)ccc2N2CCCc3ccccc32)cc1 [Example 373, 4′-(3,4-Dihydroquinolin-1(2H)-yl)-5-fluoro-3′-(3-(p-tolyl)ureido)-[1,1′-biphenyl]-2-carboxylic acid] | – | 3340 | 4000 |
| Cc1ccc(NC(=O)Nc2cc(-c3ccccc3C(=O)O)ccc2N(CC(C)C)C2CCOCC2)cc1 [Example 378] | – | 60 | 70 |
| Cc1ccc(NC(=O)Nc2cc(-c3ccccc3-c3nnn[nH]3)ccc2N(CC(C)C)C2CCOCC2)cc1 [Example 379] | – | 20 | 30 |
| Cc1ccc(NC(=O)Nc2cc(-c3cc(F)ccc3C(=O)O)ccc2N(CC(C)C)CC2CC(F)(F)C2)cc1 [Example 380] | – | 50 | 70 |
| Cc1cc(NC(=O)Nc2cc(-c3ccccc3-c3nnn[nH]3)ccc2N(CC(C)C)CC2CC(F)(F)C2)on1 [Example 382] | – | 500 | 350 |
| Cc1ccc(NC(=O)Nc2cc(-c3ccccc3-c3nnn[nH]3)ccc2N2C[C@@H]3C[C@H]2CN3c2ccc(F)cc2)cc1 [Example 383] | – | 70 | 130 |
| CC(C)CN(CC1CC(F)(F)C1)c1ccc(-c2ccccc2-c2nnn[nH]2)cc1NC(=O)Nc1cc(C(C)C)no1 [Example 384] | – | 1640 | 1890 |
| C=C(C)CN(CC(F)(F)F)c1ccc(-c2cc(F)ccc2C(=O)O)cc1NC(=O)Nc1ccc(C)cc1 [Example 473] | – | 70 | 60 |

The remaining compounds from weak to strong by IC50 (IDO [2]), led by results:

| IC50 (IDO [1]) [nM] | IC50 (IDO [2]) [nM] | IC50 (Human IDO1) [nM] | Structure (SMILES) |
| --- | --- | --- | --- |
| – | 10 | 10 | O=C(Nc1ccc(C2CC2)cc1)Nc1cc(-c2ccccc2-c2nn[nH]n2)ccc1N1CC2CC1CN2Cc1ccccc1 (centres unmarked) [Example 348, 1-(4-(5-benzyl-2,5-diazabicyclo[2.2.1]heptan-2-yl)-2′-(2H-tetrazol-5-yl)-[1,1′-biphenyl]-3-yl)-3-(4-cyclopropylphenyl)urea] |
| – | 10 | 9.13 | C=C(C)CN(CC(F)(F)F)c1ccc(-c2ccccc2-c2nnn[nH]2)cc1NC(=O)Nc1ccc(C)cc1 [Example 472] |
| – | 10 | 20 | CC(C)CN(c1ccc(-c2ccccc2-c2nnn[nH]2)cc1NC(=O)Nc1ccc(OC(F)(F)F)cc1)C1CCC(F)(F)CC1 [Example 514, 1-(4((4,4-Difluorocyclohexyl)(isobutyl)amino)-2′-(1H-tetrazol-5-yl)-[1,1′-biphenyl]-3-yl)-3-(4-(trifluoromethoxy)phenyl)urea] |
| – | 7.49 | 130 | O=C(Nc1ccc(C2CC2)cc1)Nc1cc(-c2ccccc2-c2nnn[nH]2)ccc1N(CCCC(F)(F)F)Cc1ccc(Cl)cc1 [Example 349, 1-(4-((4-chlorobenzyl)(4,4,4-trifluorobutyl)amino)-2′-(1H-tetrazol-5-yl)-[1,1′-biphenyl]-3-yl)-3-(4-cyclopropylphenyl)urea] |
| – | 6.12 | 7.33 | Cc1ccc(NC(=O)Nc2cc(-c3cc(F)ccc3-c3nnn[nH]3)ccc2N(CC(C)C)CC(C)C)cc1 [Example 483] |
| – | 5.1 | 2.37 | O=C(Nc1ccc(C2CC2)c(F)c1)Nc1cc(-c2ccccc2-c2nnn[nH]2)ccc1N(CCC(F)(F)F)Cc1ccc(OC(F)(F)F)cc1 [Example 353, 1-(2′-(1H-tetrazol-5-yl)-4-((4-(trifluoromethoxy)benzyl)(3,3,3-trifluoro-propyl)amino)-[1,1′-biphenyl]-3-yl)-3-(4-cyclopropyl-3-fluorophenyl)urea] |
| – | 5.01 | 20 | Cc1ccc(NC(=O)Nc2cc(-c3ccccc3-c3nnn[nH]3)ccc2N(CCC(F)(F)F)Cc2ccc(F)cc2C(F)(F)F)cc1 [Example 502, 1-(4-((4-fluoro-2-(trifluoromethyl)benzyl)(3,3,3-trifluoropropyl)amino)-2′-(1H-tetrazol-5-yl)-[1,1′-biphenyl]-3-yl)-3-(p-tolyl)urea] |
| – | 2.88 | 50 | Cc1ccc(NC(=O)Nc2cc(-c3ccccc3C(=O)O)ccc2N(CC(C)C)C2CCC(F)(F)CC2)cc1 [Example 512, 4′-((4,4-Difluorocyclohexyl)(isobutyl)amino)-3′-(3-(p-tolyl)ureido)-[1,1′-biphenyl]-2-carboxylic acid] |
| – | 2.5 | 10 | CC(C)CN(CC(C)C)c1ccc(-c2cc(F)ccc2-c2nnn[nH]2)cc1NC(=O)Nc1ccccc1F [Example 484] |
| – | 2.37 | 3.29 | Cc1ccc(NC(=O)Nc2cc(-c3cc(F)ccc3-c3nnn[nH]3)c(F)cc2N(CC(C)C)C2CCCCC2)cc1 [Example 355, 1-(4-(cyclohexyl(isobutyl)amino)-5′,6-difluoro-2′-(1H-tetrazol-5-yl)-[1,1′-biphenyl]-3-yl)-3-(p-tolyl)urea] |
| – | 2.24 | 10 | O=C(Nc1ccc(OC(F)(F)F)cc1)Nc1cc(-c2ccccc2-c2nnn[nH]2)ccc1N(CCC(F)(F)F)Cc1ccc(OC(F)(F)F)cc1 [Example 503, 1-(2′-(1H-Tetrazol-5-yl)-4-((4-(trifluoromethoxy)benzyl)(3,3,3-trifluoropropyl)amino)-[1,1′-biphenyl]-3-yl)-3-(4-(trifluoromethoxy)phenyl)urea] |
| – | 1.73 | 0.845 | Cc1ccc(NC(=O)Nc2cc(-c3ccccc3-c3nnn[nH]3)ccc2N(CCC(F)(F)F)Cc2ccc(OC(F)(F)F)cc2)cc1 [Example 341, 1-(2′-(1H-tetrazol-5-yl)-4-((4-(trifluoromethoxy)benzyl)(3,3,3-trifluoropropyl)amino)-[1,1′-biphenyl]-3-yl)-3-(p-tolyl)urea] |
| – | 0.4 | 5.14 | O=C(Nc1ccc(F)cc1F)Nc1cc(-c2ccccc2-c2nnn[nH]2)ccc1N(CCC(F)(F)F)Cc1ccc(OC(F)(F)F)cc1 [Example 504, 1-(2′-(1H-Tetrazol-5-yl)-4-((4-(trifluoromethoxy)benzyl)(3,3,3-trifluoropropyl)amino)-[1,1′-biphenyl]-3-yl)-3-(2,4-difluorophenyl)urea] |
